The structures appear in SMILES notation.

The target in the first test is CK2 (Homo sapiens (Human), UniProt P68400). Kind of test: Radiometric CK2 kinase assay. The class given is biochemical.
CK2, sequence (P68400 whole entry): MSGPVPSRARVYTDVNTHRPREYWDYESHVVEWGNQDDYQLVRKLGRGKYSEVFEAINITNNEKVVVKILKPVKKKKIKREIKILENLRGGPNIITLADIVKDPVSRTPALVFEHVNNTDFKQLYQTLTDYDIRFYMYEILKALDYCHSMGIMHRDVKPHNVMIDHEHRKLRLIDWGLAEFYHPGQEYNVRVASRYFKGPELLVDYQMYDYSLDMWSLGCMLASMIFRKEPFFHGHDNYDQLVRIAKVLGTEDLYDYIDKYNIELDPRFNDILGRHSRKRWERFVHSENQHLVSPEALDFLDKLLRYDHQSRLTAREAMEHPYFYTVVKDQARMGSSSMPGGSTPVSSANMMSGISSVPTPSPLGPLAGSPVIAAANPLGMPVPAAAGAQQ
Settings: not given
`CC(C)COC(=O)c1[nH]c2ccc(F)cc2c1-c1cn(CC2CCN(CCNS(=O)(=O)c3ccc(OC(F)(F)F)cc3)CC2)nn1` [AB912, isobutyl 5-fluoro-3-(1-((1-(2-((4-(trifluoromethoxy)phenyl)sulfonamido)ethyl)piperidin-4-yl)methyl)-1H-1,2,3-triazol-4-yl)-1H-indole-2-carboxylate] gave an IC50 of 300 nM.
On the same count and under the same terms, the result for `CC(C)COC(=O)c1[nH]c2ccc(F)cc2c1-c1cn(CC2CCN(CCNS(=O)(=O)c3ccc(-c4ccccc4)cc3)CC2)nn1` [AB913, isobutyl 3-(1-((1-(2-([1,1′-biphenyl]-4-sulfonamido)ethyl)piperidin-4-yl)methyl)-1H-1,2,3-triazol-4-yl)-5-fluoro-1H-indole-2-carboxylate] reads 80 nM; that for `CC(C)COC(=O)c1[nH]c2ccc(F)cc2c1-c1cn(CC2CCN(CCNS(=O)(=O)c3ccc(C4CCCCC4)cc3)CC2)nn1` [AB914, isobutyl 3-(1-((1-(2-((4-cyclohexylphenyl)sulfonamido)ethyl)piperidin-4-yl)methyl)-1H-1,2,3-triazol-4-yl)-5-fluoro-1H-indole-2-carboxylate], 71 nM.
On the same count and under the same terms, the result for `CC(C)COC(=O)c1[nH]c2ccc(F)cc2c1-c1cn(CC2CCN(CCNS(=O)(=O)c3ccc(OC(C)C)cc3)CC2)nn1` [AB917, isobutyl 5-fluoro-3-(1-((1-(2-((4-isopropoxyphenyl)sulfonamido)ethyl)piperidin-4-yl)methyl)-1H-1,2,3-triazol-4-yl)-1H-indole-2-carboxylate] reads 600 nM.
As for `CC(C)COC(=O)c1[nH]c2ccc(F)cc2c1-c1cn(CC2CCN(CCNS(=O)(=O)c3ccc4c(c3)CCC4)CC2)nn1` [AB932, isobutyl 3-(1-((1-(2-((2,3-dihydro-1H-indene)-5-sulfonamido)ethyl)piperidin-4-yl)methyl)-1H-1,2,3-triazol-4-yl)-5-fluoro-1H-indole-2-carboxylate], the IC50 amounted to 75 nM.
Compound `CC(C)COC(=O)c1[nH]c2ccc(F)cc2c1-c1cn(CC2CCN(CCNS(=O)(=O)c3ccc(C(C)(C)C)cc3)CC2)nn1` [AB934, isobutyl 3-(1-((1-(2-((4-(tert-butyl)phenyl)sulfonamido)ethyl)piperidin-4-yl)methyl)-1H-1,2,3-triazol-4-yl)-5-fluoro-1H-indole-2-carboxylate] displayed an IC50 of 52 nM.

The test is the same for the next values; noted with them: compound at 1 μM; ATP 10 μM.
For `CC(=O)c1cccc(Oc2ccc(CN3CCC(Cn4cc(-c5c(C(=O)OCC(C)C)[nH]c6ccc(F)cc56)nn4)CC3)cc2C(C)C)c1` [AB718, Isobutyl 3-(1-((1-(4-(3-acetylphenoxy)-3-isopropylbenzyl)piperidin-4-yl)methyl)-1H-1,2,3-triazol-4-yl)-5-fluoro-1H-indole-2-carboxylate], at 1 µM the inhibition was 5%.
Same read-out and setting: the result for `CC(C)COC(=O)c1[nH]c2ccc(F)cc2c1-c1cn(CC2CCN(Cc3ccc(-c4ccc5c(c4)CCO5)c(Cl)c3)CC2)nn1` [AB731, Isobutyl 3-(1-((1-(3-chloro-4-(2,3-dihydrobenzofuran-5-yl)benzyl)piperidin-4-yl)methyl)-1H-1,2,3-triazol-4-yl)-5-fluoro-1H-indole-2-carboxylate] reads 5%; that for `CC(=O)c1cccc(-c2ccc(CN3CCC(Cn4cc(-c5c(C(=O)OCC(C)C)[nH]c6ccc(F)cc56)nn4)CC3)cc2Cl)c1` [AB739, Isobutyl 3-(1-((1-((3′-acetyl-2-chloro-[1,1′-biphenyl]-4-yl)methyl)piperidin-4-yl)methyl)-1H-1,2,3-triazol-4-yl)-5-fluoro-1H-indole-2-carboxylate], 7%; that for `CC(C)CCOc1ccccc1-c1ccc(C(=O)N2CCC(Cn3cc(-c4c(C(=O)OCC(C)C)[nH]c5ccc(F)cc45)nn3)CC2)cc1Cl` [AB743, Isobutyl 3-(1-((1-(2-chloro-2′-(isopentyloxy)-[1,1′-biphenyl]-4-carbonyl)piperidin-4-yl)methyl)-1H-1,2,3-triazol-4-yl)-5-fluoro-1H-indole-2-carboxylate], 9%.
The compound `CC(C)CCOc1ccc(CN2CCC(Cn3cc(-c4c(C(=O)OCC(C)C)[nH]c5ccc(F)cc45)nn3)CC2)cc1Cl` [AB746, Isobutyl 3-(1-((1-(3-chloro-4-(isopentyloxy)benzyl)piperidin-4-yl)methyl)-1H-1,2,3-triazol-4-yl)-5-fluoro-1H-indole-2-carboxylate] had an inhibition at 1 µM of 15%.
Compound `CC(C)COC(=O)c1[nH]c2ccc(F)cc2c1-c1cn(CC2CCN(Cc3ccc(-c4ccc5[nH]ccc5c4)c(Cl)c3)CC2)nn1` [AB753, Isobutyl 3-(1-((1-(3-chloro-4-(1H-indol-5-yl)benzyl)piperidin-4-yl)methyl)-1H-1,2,3-triazol-4-yl)-5-fluoro-1H-indole-2-carboxylate] gave an inhibition at 1 µM of 18%.
`CC(C)COC(=O)c1[nH]c2ccc(F)cc2c1-c1cn(CC2CCN(S(=O)(=O)N3CCN(Cc4ccccc4)CC3)CC2)nn1` [AB755] came in with an inhibition at 1 µM of 56%.
The same measure, in the same setting: the result for `CC(C)COC(=O)c1[nH]c2ccc(F)cc2c1-c1cn(CC2CCN(C(=O)c3ccc(-c4cccc5[nH]ccc45)c(C(F)(F)F)c3)CC2)nn1` [AB756, Isobutyl 3-(1-((1-(4-(1H-indol-4-yl)-3-(trifluoromethyl)benzoyl)piperidin-4-yl)methyl)-1H-1,2,3-triazol-4-yl)-5-fluoro-1H-indole-2-carboxylate] reads 19%; that for `CC(C)COC(=O)c1[nH]c2ccc(F)cc2c1-c1cn(CC2CCN(Cc3ccc(-c4cccc(C(C)C)c4)c(Cl)c3)CC2)nn1` [AB758, Isobutyl 3-(1-((1-((2-chloro-3′-isopropyl-[1,1′-biphenyl]-4-yl)methyl)piperidin-4-yl)methyl)-1H-1,2,3-triazol-4-yl)-5-fluoro-1H-indole-2-carboxylate], 17%.
Compound `CC(C)COC(=O)c1[nH]c2ccc(F)cc2c1-c1cn(CC2CCN(Cc3ccc(OCC(C)C)c(Cl)c3)CC2)nn1` [AB760, Isobutyl 3-(1-((1-(3-chloro-4-isobutoxybenzyl)piperidin-4-yl)methyl)-1H-1,2,3-triazol-4-yl)-5-fluoro-1H-indole-2-carboxylate] displayed an inhibition at 1 µM of 15%.
On the same count and under the same terms, the result for `CC(C)COC(=O)c1[nH]c2ccc(F)cc2c1-c1cn(CC2CCN(CCNS(=O)(=O)c3ccc4c(c3)CCO4)CC2)nn1` [AB930, isobutyl 3-(1-((1-(2-((2,3-dihydrobenzofuran)-5-sulfonamido)ethyl)piperidin-4-yl)methyl)-1H-1,2,3-triazol-4-yl)-5-fluoro-1H-indole-2-carboxylate] reads 45%.
In turn, `CC(C)COC(=O)c1[nH]c2ccc(F)cc2c1-c1cn(CC2CCN(S(=O)(=O)c3ccc(C(C)(C)C)cc3)CC2)nn1` [AB938] displayed an inhibition at 1 µM of 5%.
For the compound `CC(C)COC(=O)c1[nH]c2ccc(F)cc2c1-c1cn(CC2CCN(S(=O)(=O)c3ccc4c(c3)OCC4)CC2)nn1` [AB939, isobutyl 3-(1-((1-((2,3-dihydrobenzofuran-6-yl)sulfonyl)piperidin-4-yl)methyl)-1H-1,2,3-triazol-4-yl)-5-fluoro-1H-indole-2-carboxylate], the inhibition at 1 µM worked out at 4%.

The same test, now with this note: inhibition of CK2 activity; ATP 10 μM.
The compound `CC(C)COC(=O)c1[nH]c2ccc(F)cc2c1-c1cn(CC2CCN(CCNS(=O)(=O)N3CCC(Cc4ccccc4)CC3)CC2)nn1` [AB918, isobutyl 3-(1-((1-(2-((4-benzylpiperidine)-1-sulfonamido)ethyl)piperidin-4-yl)methyl)-1H-1,2,3-triazol-4-yl)-5-fluoro-1H-indole-2-carboxylate] registered an IC50 of 400 nM.
The same measure, in the same setting: then `CC(C)COC(=O)c1[nH]c2ccc(F)cc2c1-c1cn(CC2CCN(CCNS(=O)(=O)N3CCC(c4ccccc4)CC3)CC2)nn1` [AB929, isobutyl 5-fluoro-3-(1-((1-(2-((4-phenylpiperidine)-1-sulfonamido)ethyl)piperidin-4-yl)methyl)-1H-1,2,3-triazol-4-yl)-1H-indole-2-carboxylate], with 58 nM.
The compound `CCC(C)c1ccc(S(=O)(=O)NCCN2CCC(Cn3cc(-c4c(C(=O)OCC(C)C)[nH]c5ccc(F)cc45)nn3)CC2)cc1` (stereo not drawn) [AB931, isobutyl 3-(1-((1-(2-((4-(sec-butyl)phenyl)sulfonamido)ethyl)piperidin-4-yl)methyl)-1H-1,2,3-triazol-4-yl)-5-fluoro-1H-indole-2-carboxylate] displayed a half-maximal inhibitory concentration (IC50) of 100 nM.
In turn, `CC(C)COC(=O)c1[nH]c2ccc(F)cc2c1-c1cn(CC2CCN(CCNS(=O)(=O)c3ccc(Oc4ccccc4)cc3)CC2)nn1` [AB933, isobutyl 5-fluoro-3-(1-((1-(2-((4-phenoxyphenyl)sulfonamido)ethyl)piperidin-4-yl)methyl)-1H-1,2,3-triazol-4-yl)-1H-indole-2-carboxylate] displayed an IC50 of 62 nM.
Turning to `CC(C)COC(=O)c1[nH]c2ccc(F)cc2c1-c1cn(CC2CCN(CCNS(=O)(=O)Cc3ccc(C(F)(F)F)cc3)CC2)nn1` [AB935, isobutyl 5-fluoro-3-(1-((1-(2-(((4-(trifluoromethyl)phenyl)methyl)sulfonamido)ethyl)piperidin-4-yl)methyl)-1H-1,2,3-triazol-4-yl)-1H-indole-2-carboxylate], the IC50 came to 49 nM.
Compound `CC(C)COC(=O)c1[nH]c2ccc(F)cc2c1-c1cn(CC2CCN(CCNS(=O)(=O)Cc3ccc(Cl)cc3)CC2)nn1` [AB936, isobutyl 3-(1-((1-(2-(((4-chlorophenyl)methyl)sulfonamido)ethyl)piperidin-4-yl)methyl)-1H-1,2,3-triazol-4-yl)-5-fluoro-1H-indole-2-carboxylate] yielded a concentration for half-maximal inhibition (IC50) of 550 nM.
The same measure, in the same setting: the result for `CC(C)COC(=O)c1[nH]c2ccc(F)cc2c1-c1cn(CC2CCN(CCNS(=O)(=O)Cc3cccc(Cl)c3)CC2)nn1` [AB937, isobutyl 3-(1-((1-(2-(((3-chlorophenyl)methyl)sulfonamido)ethyl)piperidin-4-yl)methyl)-1H-1,2,3-triazol-4-yl)-5-fluoro-1H-indole-2-carboxylate] reads 800 nM.
On the same count and under the same terms, the result for `CC(C)COC(=O)c1[nH]c2ccc(F)cc2c1-c1cn(CC2CCN(CCNS(=O)(=O)Cc3ccc(Br)cc3)CC2)nn1` [AB1030, isobutyl 3-(1-((1-(2-(((4-bromophenyl)methyl)sulfonamido)ethyl)piperidin-4-yl)methyl)-1H-1,2,3-triazol-4-yl)-5-fluoro-1H-indole-2-carboxylate] reads 54 nM.

A word on the IC50: it is the concentration at which inhibition is half-maximal. Broadly, the inhibition is how much of the control response was suppressed. Read a low inhibition as a response near the control.

Values taken from patent US20230278983A1, “INDOLE DERIVATIVES AND USES THEREOF FOR TREATING A CANCER” (Universite Claude Bernard Lyon 1, priority 2020, published 2023).
